According to paper PMC5053523, “In Vitro Antibacterial Activity of Rhodanine Derivatives against Pathogenic Clinical Isolates” (PLoS ONE, 2016):
In brackets after ≈: the same amount, converted by molar mass. Like-named read-outs stand apart in the source and are kept apart here.

Legend:
[1] = system: vancomycin resistant enterococci (VRE) E. faecalis; test: Broth microdilution MIC/MBC, VRE E. faecalis; format: cell-based; conditions: for MIC: read-out: MIC
[2] = system: vancomycin resistant enterococci (VRE) E. faecium; test: Broth microdilution MIC/MBC, VRE E. faecium; format: cell-based; conditions: for MIC: read-out: MIC
B. cereus = test: Broth microdilution MIC/MBC, B. cereus; format: cell-based; conditions: Bacillus cereus; for MBC: read-out: MBC; for MIC: read-out: MIC
Description: The broth microdilution technique was used, followed by subculturing on agar plates that were rhodanine—free.

Bacillus Strains = test: Broth microdilution MIC50/MIC90 and MIC range, Bacillus strains panel; format: cell-based, Bacillus spp.; conditions: 10 Bacillus strains
Description: The broth microdilution technique was used, followed by subculturing on agar plates that were rhodanine—free. […] The MICs reported represent the lowest concentration of each compound necessary to inhibit bacterial growth and the MBCs represent the lowest concentration required to reduce the initial bacterial inoculum by ≥ 99.9%.

P. aeruginosa = test: Broth microdilution MIC, P. aeruginosa; format: cell-based; conditions: Pseudomonas aeruginosa
K. pneumoniae = test: Broth microdilution MIC, K. pneumoniae; format: cell-based
Acinetobacter baumannii [3] = test: Broth microdilution MIC, Acinetobacter baumannii; format: cell-based
MRSA USA300 = test: MIC against MRSA USA300 with and without 4% human serum albumin; format: cell-based, Staphylococcus aureus; conditions: Staphylococcus aureus, read-out: MIC against MRSA USA300
Summary of the method: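 Broth microdilution MIC per CLSI against MRSA USA300, run in tryptic soy broth alone and with 4% human serum albumin. MIC is the lowest concentration inhibiting growth.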

Escherichia coli O157:H7 [4] = test: MIC with/without sub-MIC colistin, Escherichia coli O157:H7; format: cell-based
Description: (§1) The MIC of the rhodanines and control antibiotics, in the presence of a sub-inhibitory concentration of colistin or polymixin B nonapeptide (PMBN), against Gram-negative bacteria was evaluated as described before. The antibacterial activity of the rhodanines was further investigated against E. coli SM1411Δ acrAB, a strain that is deficient in the multidrug-resistant AcrAB efflux pump, as described before.

Salmonella Typhimurium [5] = test: MIC with/without sub-MIC colistin, Salmonella Typhimurium; format: cell-based
Description: as §1

Klebsiella pneumoniae = test: MIC with/without sub-MIC colistin, Klebsiella pneumoniae; format: cell-based
Description: as §1

Pseudomonas aeruginosa [6] = test: MIC with/without sub-MIC colistin, Pseudomonas aeruginosa; format: cell-based
Description: as §1

Acinetobacter baumannii [7] = test: MIC with/without PMBN, Acinetobacter baumannii; format: cell-based
Description: as §1

Escherichia coli O157:H7 [8] = test: MIC with/without PMBN, Escherichia coli O157:H7; format: cell-based
Description: as §1

Salmonella Typhimurium [9] = test: MIC with/without PMBN, Salmonella Typhimurium; format: cell-based
Description: as §1

Pseudomonas aeruginosa [10] = test: MIC with/without PMBN, Pseudomonas aeruginosa; format: cell-based
Description: as §1

Escherichia coli Δ acrAB = test: MIC against E. coli 1411 and AcrAB efflux pump deficient E. coli SM1411Δ acrAB; format: cell-based
Description: as §1

[11] = E. faecalis NR31972 Strain SF 28073
[12] = E. faecium HM 968 Strain ERV102
[13] = E. faecium NR31914 Strain E0120
[14] = E. faecium Patient #1–1 NR-31903
[15] = NRS201, B. cereus NRS 201 NR-2488
[16] = Salmonella enterica, ATCC 700720 / TYPHIMURIUM

O=C(O)[C@@H](Cc1ccccc1)N1C(=O)/C(=C/c2cccc(Cc3ccccc3)c2)SC1=S [Rh 7]
MBC ([1]; E. faecalis ERV103 HM-934): 16 µM (≈ 7.35 µg/mL)
MIC ([1]; E. faecalis ERV103 HM-934): 16 µM (≈ 7.35 µg/mL)
MBC [1, 11]: 16 µM (≈ 7.35 µg/mL)
MIC [1, 11]: 16 µM (≈ 7.35 µg/mL)
MBC ([1]; E. faecalis R712 HM-335): 16 µM (≈ 7.35 µg/mL)
MIC ([1]; E. faecalis R712 HM-335): 8 µM (≈ 3.68 µg/mL)
MBC ([1]; E. faecalis S613 HM-334): 16 µM (≈ 7.35 µg/mL)
MIC ([1]; E. faecalis S613 HM-334): 16 µM (≈ 7.35 µg/mL)
MBC ([1]; E. faecalis TX0104 HM-201): 16 µM (≈ 7.35 µg/mL)
MIC ([1]; E. faecalis TX0104 HM-201): 16 µM (≈ 7.35 µg/mL)
MBC ([2]; E. faecium E417 HM-965): 64 µM (≈ 29.4 µg/mL)
MIC ([2]; E. faecium E417 HM-965): 8 µM (≈ 3.68 µg/mL)
MBC ([2]; E. faecium E1071 NR-28978): > 64 µM
MIC ([2]; E. faecium E1071 NR-28978): 16 µM (≈ 7.35 µg/mL)
MBC [2, 12]: > 64 µM
MIC [2, 12]: 16 µM (≈ 7.35 µg/mL)
MBC [2, 13]: 32 µM (≈ 14.7 µg/mL)
MIC [2, 13]: 16 µM (≈ 7.35 µg/mL)
MBC [2, 14]: 16 µM (≈ 7.35 µg/mL)
MIC [2, 14]: 8 µM (≈ 3.68 µg/mL)
MBC (B. cereus; B. cereus BAG1O-2 NR-28582): 4 µM (≈ 1.84 µg/mL)
MIC (B. cereus; B. cereus BAG1O-2 NR-28582): 4 µM (≈ 1.84 µg/mL)
MBC (B. cereus; B. cereus BAG1X1-1 NR-28575): 4 µM (≈ 1.84 µg/mL)
MIC (B. cereus; B. cereus BAG1X1-1 NR-28575): 2 µM (≈ 0.919 µg/mL)
MBC (B. cereus; B. cereus BAG1X2-1 NR-28578): 4 µM (≈ 1.84 µg/mL)
MIC (B. cereus; B. cereus BAG1X2-1 NR-28578): 4 µM (≈ 1.84 µg/mL)
MBC (B. cereus; B. cereus G9241 NR-9564): 8 µM (≈ 3.68 µg/mL)
MIC (B. cereus; B. cereus G9241 NR-9564): 8 µM (≈ 3.68 µg/mL)
MBC (B. cereus; B. cereus VD014 NR-22141): 4 µM (≈ 1.84 µg/mL)
MIC (B. cereus; B. cereus VD014 NR-22141): 4 µM (≈ 1.84 µg/mL)
MBC (B. cereus; B. cereus VD115 NR-22148): 4 µM (≈ 1.84 µg/mL)
MIC (B. cereus; B. cereus VD115 NR-22148): 4 µM (≈ 1.84 µg/mL)
MBC (B. cereus; B. cereus VD148 NR-22150): 4 µM (≈ 1.84 µg/mL)
MIC (B. cereus; B. cereus VD148 NR-22150): 4 µM (≈ 1.84 µg/mL)
MBC (B. cereus; [15]): 4 µM (≈ 1.84 µg/mL)
MIC (B. cereus; [15]): 4 µM (≈ 1.84 µg/mL)
MIC50 (Bacillus Strains): 4 µM (≈ 1.84 µg/mL)
MIC90 (Bacillus Strains): 8 µM (≈ 3.68 µg/mL)
MIC (P. aeruginosa; ATCC9721): > 128 µM
MIC (P. aeruginosa; ATCC15442): > 128 µM
MIC (K. pneumoniae; K. pneumoniae NR-15417): >128 µM
MIC (K. pneumoniae; Klebsiella pneumoniae): > 128 µM
MIC (Acinetobacter baumannii [3]; ATCC13345): > 128 µM
MIC (Acinetobacter baumannii [3]; ATCC17786): > 128 µM
MIC (MRSA USA300; 24 h, Media TSB + 4% HSA): > 64 µM
MIC (MRSA USA300; Media TSB): 16 µM (≈ 7.35 µg/mL)
MIC (Escherichia coli O157:H7 [4]; Escherichia coli O157:H7 ATCC 35150, colistin (+) […], read-out: MIC): >64 µM
MIC (Escherichia coli O157:H7 [4]; Escherichia coli O157:H7 ATCC 700728, colistin (+) […], read-out: MIC): >64 µM
MIC (Escherichia coli O157:H7 [4]; Escherichia coli, ATCC35150): > 128 µM
MIC (Escherichia coli O157:H7 [4]; Escherichia coli, ATCC700728): > 128 µM
MIC (Salmonella Typhimurium [5]; Salmonella Typhimurium ATCC 700720, colistin (+) […], read-out: MIC): >64 µM
MIC (Salmonella Typhimurium [5]; [16]): > 128 µM
MIC (Klebsiella pneumoniae; Klebsiella pneumoniae ATCC BAA 2146, colistin (+) […]): >64 µM
MIC (Klebsiella pneumoniae; Klebsiella pneumoniae, BAA2146): > 128 µM
MIC (Pseudomonas aeruginosa [6]; Pseudomonas aeruginosa ATCC 921, colistin (+) […], read-out: MIC): >64 µM
MIC (Pseudomonas aeruginosa [6]; Pseudomonas aeruginosa, ATCC921): > 128 µM
MIC (Acinetobacter baumannii [7]; Acinetobacter baumannii ATCC BAA747, PMBN (+) 4 μg/mL, read-out: MIC): >64 µM
MIC (Acinetobacter baumannii [7]; Acinetobacter baumannii ATCC BAA19606, PMBN (+) 4 μg/mL, read-out: MIC): >64 µM
MIC (Acinetobacter baumannii [7]; Acinetobacter baumannii, ATCCBAA747): > 128 µM
MIC (Acinetobacter baumannii [7]; Acinetobacter baumannii, ATCCBAA19606): > 128 µM
MIC (Escherichia coli O157:H7 [8]; Escherichia coli O157:H7 ATCC 35150, PMBN (+) 4 μg/mL, read-out: MIC): 8 µM (≈ 3.68 µg/mL)
MIC (Escherichia coli O157:H7 [8]; Escherichia coli O157:H7 ATCC 700728, PMBN (+) 4 μg/mL, read-out: MIC): >64 µM
MIC (Escherichia coli O157:H7 [8]; Escherichia coli, ATCC35150): > 256 µM
MIC (Escherichia coli O157:H7 [8]; Escherichia coli, ATCC700728): > 128 µM
MIC (Salmonella Typhimurium [9]; Salmonella Typhimurium ATCC 700720, PMBN (+) 4 μg/mL, read-out: MIC): >128 µM
MIC (Salmonella Typhimurium [9]; [16]): > 128 µM
MIC (Pseudomonas aeruginosa [10]; Pseudomonas aeruginosa ATCC 9721, PMBN (+) 4 μg/mL, read-out: MIC): >64 µM
MIC (Pseudomonas aeruginosa [10]; Pseudomonas aeruginosa, ATCC9721): > 128 µM
MIC (Escherichia coli Δ acrAB; E.coli 1411): > 64 µM
MIC (Escherichia coli Δ acrAB; E.coli 1411 SM (Δ acrAB, AcrAB efflux pump deficient)): > 64 µM
